The results in this text go back to ChEMBL document CHEMBL3124853, “Synthesis and anti-Candidal activity of N-(4-aryl/cyclohexyl)-2-(pyridine-4-yl carbonyl) hydrazinecarbothioamide” (Bioorg Med Chem Lett, 2014).

Structures are written as SMILES. Values after ≈ are worked out from the molar mass of the structure shown. Some results are limits rather than exact numbers.

The term MIC denotes the least concentration at which growth counts as inhibited. A higher MIC goes with weaker potency. The term IC50 denotes the concentration that inhibits the measured activity by half. The low end stands for higher potency, the high end for lower potency.

Experiment [1] deals with Candida. The experiment can be described thus: Antifungal activity against Candida sp. clinical isolate 11972 derived from high vaginal swabs by microbroth dilution method. In kind it is functional. (In general: In broth dilution the organism is exposed to a series of concentrations in liquid medium.)
A further experiment has as its system A549. In words: Cytotoxicity against human A549 cells after 48 hrs by MTT assay. In kind it is cell-based. Particulars: A549, 48 h. A general note: Tetrazolium assays rely on reduction of a dye to a coloured formazan, in cell work by metabolically active cells.
In experiment [2] the test system is Candida. In words: Antifungal activity against Candida sp. clinical isolate 12485 derived from urine by microbroth dilution method. It is filed as functional. The following applies: clinical isolate 12485, Urine.
The subject of experiment [3] is Candida. The experiment can be described thus: Antifungal activity against Candida sp. clinical isolate 13184 derived from high vaginal swabs by microbroth dilution method. It is filed as functional.
The next experiment relates to Candida tropicalis. In words: Antifungal activity against Candida tropicalis ATCC 66029 by microbroth dilution method. In kind it is functional.
Experiment [4] in a line: Cytotoxicity against human MCF10A cells after 48 hrs by WST1 assay. In kind it is cell-based. Particulars: MCF-10A.
Experiment [5] can be described thus: Cytotoxicity against human HT1080 cells after 48 hrs by MTT assay. It is filed as cell-based. Particulars: HT-1080, 48 h.
The test system of experiment [6] is Candida. The experiment can be described thus: Antifungal activity against Candida sp. clinical isolate 300 derived from urine by microbroth dilution method. In kind it is functional. Particulars: clinical isolate 300, Urine.
The subject of experiment [7] is Candida. In words: Antifungal activity against Candida sp. clinical isolate 178 derived from high vaginal swabs by microbroth dilution method. It is filed as functional.
The test system of another experiment is Candida parapsilosis. The experiment can be described thus: Antifungal activity against Candida parapsilosis ATCC 22019 by microbroth dilution method. In kind it is functional. The following applies: Lodderomyces parapsilosis.
The subject of the next experiment is HepG2. In words: Cytotoxicity against human HepG2 cells after 48 hrs by MTT assay. In kind it is cell-based. The following applies: HepG2, 48 h.
A further experiment deals with Candida albicans. The experiment can be described thus: Antifungal activity against Candida albicans ATCC 66027 by microbroth dilution method. In kind it is functional.
The subject of experiment [8] is Candida. The experiment can be described thus: Antifungal activity against Candida sp. clinical isolate 12810 derived from blood by microbroth dilution method. It is filed as functional.
Experiment [9] concerns Candida. The experiment can be described thus: Antifungal activity against Candida sp. clinical isolate 12341 derived from urine by microbroth dilution method. In kind it is functional. Particulars: clinical isolate 12341, Urine.

On to `O=C(NNC(=S)Nc1ccccc1)c1ccncc1`, for which the MIC is 6.25 µg/mL (≈ 22.9 µM) in the experiment with Candida [1]; 1.6 µg/mL (≈ 5.88 µM) against Candida [2]; 12.5 µg/mL (≈ 45.9 µM) in the experiment with Candida [3]; 1.6 µg/mL (≈ 5.88 µM) against Candida tropicalis; 0.19 µg/mL (≈ 0.698 µM) with Candida [6]; 6.25 µg/mL (≈ 22.9 µM) against Candida [7]. Further, the MIC was found to be 0.39 µg/mL (≈ 1.43 µM) in the experiment on Candida parapsilosis, 0.19 µg/mL (≈ 0.698 µM) in the experiment on Candida albicans, 0.78 µg/mL (≈ 2.86 µM) with Candida [8] and 1.6 µg/mL (≈ 5.88 µM) against Candida [9]. Besides, the IC50 in the experiment with A549 was 2040 µg/mL (≈ 7500 µM); in [4] it was > 300 µM; in experiment [5], 684 µg/mL (≈ 2510 µM); in the experiment with HepG2, 716 µg/mL (≈ 2630 µM).

Take `O=C(NNC(=S)Nc1ccccc1[N+](=O)[O-])c1ccncc1`: the MIC is 6.25 µg/mL (≈ 19.7 µM) with Candida [1]; 0.39 µg/mL (≈ 1.23 µM) in the experiment on Candida [2]; 0.78 µg/mL (≈ 2.46 µM) in the experiment on Candida [3]; 0.19 µg/mL (≈ 0.599 µM) in the experiment with Candida tropicalis; 1.6 µg/mL (≈ 5.04 µM) in the experiment on Candida [6]; 0.39 µg/mL (≈ 1.23 µM) against Candida [7]. In addition, the MIC with Candida parapsilosis was found to be 6.25 µg/mL (≈ 19.7 µM); with Candida albicans, 1.6 µg/mL (≈ 5.04 µM); with Candida [8], 0.39 µg/mL (≈ 1.23 µM); in the experiment with Candida [9], 6.25 µg/mL (≈ 19.7 µM). Further, the IC50 was 813 µg/mL (≈ 2560 µM) with A549, > 300 µM in experiment [4], 833 µg/mL (≈ 2630 µM) in [5] and 410 µg/mL (≈ 1290 µM) in the experiment with HepG2.

As to `CCC(C)n1ncn(-c2ccc(N3CCN(c4ccc(OCC5COC(Cn6cncn6)(c6ccc(Cl)cc6Cl)O5)cc4)CC3)cc2)c1=O` (stereo unspecified) [ITRACONAZOLE], the MIC against Candida [1] came out at 0.02 µg/mL (≈ 0.0283 µM); against Candida [2], 0.04 µg/mL (≈ 0.0567 µM); against Candida [3], 0.39 µg/mL (≈ 0.553 µM); against Candida tropicalis it was 0.19 µg/mL (≈ 0.269 µM); against Candida [6], 0.09 µg/mL (≈ 0.128 µM); against Candida [7], 0.19 µg/mL (≈ 0.269 µM). The MIC with Candida parapsilosis stood at 0.04 µg/mL (≈ 0.0567 µM); in the experiment on Candida albicans, 1.56 µg/mL (≈ 2.21 µM); with Candida [8], 0.25 µg/mL (≈ 0.354 µM); against Candida [9], 0.09 µg/mL (≈ 0.128 µM). Moreover, the IC50 was 182 µg/mL (≈ 258 µM) with A549, > 300 µM in [4], 202 µg/mL (≈ 286 µM) in experiment [5] and 142 µg/mL (≈ 201 µM) in the experiment on HepG2.

Consider `O=C(NNC(=S)Nc1ccc(Cl)cc1)c1ccncc1`, for which the MIC against Candida [1] was 0.19 µg/mL (≈ 0.619 µM); against Candida [2], 0.39 µg/mL (≈ 1.27 µM); against Candida [3] it was 0.78 µg/mL (≈ 2.54 µM); with Candida tropicalis, 0.19 µg/mL (≈ 0.619 µM); with Candida [6], 0.39 µg/mL (≈ 1.27 µM); in the experiment on Candida [7], 0.19 µg/mL (≈ 0.619 µM). In addition, the MIC against Candida parapsilosis is 0.19 µg/mL (≈ 0.619 µM); against Candida albicans, 0.09 µg/mL (≈ 0.293 µM); in the experiment on Candida [8], 0.09 µg/mL (≈ 0.293 µM); against Candida [9] it was 0.19 µg/mL (≈ 0.619 µM). For the same molecule, the IC50 in the experiment with A549 is 410 µg/mL (≈ 1340 µM); in [4], > 300 µM; in experiment [5] it was 540 µg/mL (≈ 1760 µM); in the experiment on HepG2, 1200 µg/mL (≈ 3910 µM).
